According to US20240246948A1, “BENZAMIDE DERIVATIVE, METHOD FOR PREPARING SAME, AND PHARMACEUTICAL COMPOSITION FOR PREVENTION OR TREATMENT OF CANCER CONTAINING SAME AS ACTIVE INGREDIENT” (HK INNO.N CORPORATION, priority 2021, published 2024):

Columns and labels:
[1] = target: Ba/F3 EGFR L858R/T790M (LT) (Homo sapiens, UniProt P00533, T790M/L858R, cells depend on it); test: Cell growth inhibitory ability in Ba/F3 cells overexpressing EGFR L858R/T790M (MTS, CellTiter 96 AQueous); format: cell-based; conditions: 72 hours, MTS absorbance at 490 nm, read-out: Ba/F3 EGFR double mutant L858R/T790M, IC50
Protocol: (§1) In order to confirm that the compound represented by formula 1 provided in one aspect of the present invention acts as an allosteric inhibitor against WT and mutant of EGFR, the cell growth inhibitory effect was evaluated in BaF3 cells overexpressing WT and mutant of EGFR.
(§2) More specifically, the cell growth inhibitory ability of the compound of the present invention to the Ba/F3 cell line overexpressing WT and mutant of EGFR was evaluated using CellTiter 96 AQueous Non-Radioactive Cell Proliferation Assay system of Promega, as follows. AQueous Non-Radioactive Cell Proliferation Assay is a method of confirming cell growth inhibitory ability by measuring the degree of color development by reducing MTS (3-(4,5-Dimethylthiazol-2-yl)-5-(3-carboxymethoxyphenyl)-2-(4-sulfophenyl)-2H-tetrazolium) to Formazan by a reductase secreted by mitochondria present in living cells in a cell culture state. The Ba/F3 EGFR WT and Ba/F3 EGFR del19/T790M/C797S (DTC), Ba/F3 EGFR L858R (L), Ba/F3 EGFR L858R/T790M (LT), and Ba/F3 EGFR L858R/T790M/C797S (LTC) mutation cell lines used in the present invention were purchased from the laboratory of Professor Byung-cheol Cho, Yonsei University. All cell lines were cultured in RPMI supplemented with 10% FBS, 1% penicillin-streptomycin and 1 μg/ml of puromycine in a 5% CO2 incubator at 37° C.
(§3) The cell survival inhibitory effect of the compound according to each EGFR mutation was analyzed by the following analysis method.
(§4) BaF3 cells were distributed in a 96-well cell culture plate at the density of 2000˜10000 cells/100 μL/well, and cultured for 24 hours. Thereafter, the concentration of the compound represented by formula 1 provided in one aspect of the present invention was prepared to double the final concentrations of 0.1 nM, 1 nM, 10 nM, 100 nM, 1000 nM and 10000 nM, and the compound was treated to the plate (100 μL/well). The plate was reacted in an incubator at 37° C. for 72 hours. Then, MTS was treated to the plate (20 μL/well) and the plate was incubated at 37° C. for 2 to 4 hours. Finally, after measuring the absorbance at 490 nm using a microplate reader, the relative value compared to 0 nM (% Control) was obtained to confirm the cell growth inhibitory ability of the compound. The measured values were analyzed using Prism program (version 8.0, Graphpad Software, Inc.), and the IC50 value (Inhibition concentration 50), an indicator of the cell growth inhibitory ability of the compound, was calculated.

[2] = target: Ba/F3 EGFR L858R/T790M/C797S (LTC) (Homo sapiens, UniProt P00533, T790M/C797S/L858R, cells depend on it); test: Cell growth inhibitory ability in Ba/F3 cells overexpressing EGFR L858R/T790M/C797S (MTS, CellTiter 96 AQueous); format: cell-based; conditions: 72 hours, MTS absorbance at 490 nm, read-out: Ba/F3 EGFR triple mutant L858R/T790M/C797S, IC50
Protocol: as §1, §2, §3, §4

Ba/F3 EGFR L858R/T790M/C797S (LTC), sequence (P00533 whole entry T790M/C797S/L858R): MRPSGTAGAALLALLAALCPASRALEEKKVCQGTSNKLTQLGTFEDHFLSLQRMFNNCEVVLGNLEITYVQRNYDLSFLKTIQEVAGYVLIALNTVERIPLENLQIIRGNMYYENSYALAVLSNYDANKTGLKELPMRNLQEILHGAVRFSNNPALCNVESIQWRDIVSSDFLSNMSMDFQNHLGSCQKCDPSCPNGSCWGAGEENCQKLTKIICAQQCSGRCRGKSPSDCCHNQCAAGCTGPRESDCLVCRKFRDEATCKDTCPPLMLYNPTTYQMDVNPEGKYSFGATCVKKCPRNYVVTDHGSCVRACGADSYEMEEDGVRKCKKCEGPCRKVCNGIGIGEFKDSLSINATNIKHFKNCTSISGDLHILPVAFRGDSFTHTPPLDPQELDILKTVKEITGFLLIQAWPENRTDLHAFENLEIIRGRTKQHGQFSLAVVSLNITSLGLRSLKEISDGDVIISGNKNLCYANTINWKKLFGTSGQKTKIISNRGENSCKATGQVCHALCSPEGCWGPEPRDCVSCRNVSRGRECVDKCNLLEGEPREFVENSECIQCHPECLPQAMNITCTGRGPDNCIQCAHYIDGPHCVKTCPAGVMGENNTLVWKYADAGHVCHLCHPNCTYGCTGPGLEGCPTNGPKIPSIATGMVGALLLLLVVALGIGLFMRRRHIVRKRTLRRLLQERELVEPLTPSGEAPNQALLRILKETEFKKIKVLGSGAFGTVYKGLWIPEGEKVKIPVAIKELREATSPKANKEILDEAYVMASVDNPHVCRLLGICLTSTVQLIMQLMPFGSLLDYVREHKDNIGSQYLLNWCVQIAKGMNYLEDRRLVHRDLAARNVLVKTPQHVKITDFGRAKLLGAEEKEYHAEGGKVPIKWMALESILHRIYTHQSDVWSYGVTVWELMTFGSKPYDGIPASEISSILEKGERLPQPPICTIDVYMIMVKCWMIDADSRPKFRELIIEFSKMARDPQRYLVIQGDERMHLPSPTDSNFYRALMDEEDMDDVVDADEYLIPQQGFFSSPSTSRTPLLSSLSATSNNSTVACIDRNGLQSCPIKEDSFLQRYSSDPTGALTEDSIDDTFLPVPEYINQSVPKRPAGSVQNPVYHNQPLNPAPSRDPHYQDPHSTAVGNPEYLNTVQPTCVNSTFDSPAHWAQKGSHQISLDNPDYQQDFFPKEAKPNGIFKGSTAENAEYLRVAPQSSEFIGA
Ba/F3 EGFR L858R/T790M (LT), sequence (P00533 whole entry T790M/L858R): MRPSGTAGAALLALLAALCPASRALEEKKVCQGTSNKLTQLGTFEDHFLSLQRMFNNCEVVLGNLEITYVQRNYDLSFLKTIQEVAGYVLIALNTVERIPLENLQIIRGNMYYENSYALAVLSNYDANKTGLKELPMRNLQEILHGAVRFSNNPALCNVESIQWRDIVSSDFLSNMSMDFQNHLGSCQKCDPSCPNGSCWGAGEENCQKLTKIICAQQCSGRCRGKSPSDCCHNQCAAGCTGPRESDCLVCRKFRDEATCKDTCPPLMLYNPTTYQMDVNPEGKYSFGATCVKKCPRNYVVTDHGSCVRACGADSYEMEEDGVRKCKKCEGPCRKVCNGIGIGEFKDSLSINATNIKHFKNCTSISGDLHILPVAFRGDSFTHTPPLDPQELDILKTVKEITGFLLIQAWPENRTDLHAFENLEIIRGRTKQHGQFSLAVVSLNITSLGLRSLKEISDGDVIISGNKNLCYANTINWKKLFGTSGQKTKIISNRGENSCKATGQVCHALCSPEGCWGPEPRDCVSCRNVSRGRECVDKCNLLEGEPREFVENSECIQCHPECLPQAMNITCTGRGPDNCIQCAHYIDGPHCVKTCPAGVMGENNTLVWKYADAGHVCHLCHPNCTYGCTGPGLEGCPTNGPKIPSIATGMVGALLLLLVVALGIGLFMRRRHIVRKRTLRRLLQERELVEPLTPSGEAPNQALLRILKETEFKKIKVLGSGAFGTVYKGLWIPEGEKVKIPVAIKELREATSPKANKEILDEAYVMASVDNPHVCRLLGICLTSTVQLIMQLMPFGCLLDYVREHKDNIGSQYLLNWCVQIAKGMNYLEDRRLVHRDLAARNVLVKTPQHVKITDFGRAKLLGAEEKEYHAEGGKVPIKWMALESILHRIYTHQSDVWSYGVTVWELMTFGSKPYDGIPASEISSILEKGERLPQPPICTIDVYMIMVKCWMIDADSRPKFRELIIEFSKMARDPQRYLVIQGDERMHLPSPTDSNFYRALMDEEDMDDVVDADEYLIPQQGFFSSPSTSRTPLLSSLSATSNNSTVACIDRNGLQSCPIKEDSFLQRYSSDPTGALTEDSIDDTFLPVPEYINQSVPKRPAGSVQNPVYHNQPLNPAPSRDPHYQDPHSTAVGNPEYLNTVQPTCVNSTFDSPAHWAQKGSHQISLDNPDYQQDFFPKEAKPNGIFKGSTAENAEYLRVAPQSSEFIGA

SMILES	GI50 [1]	GI50 [2]
Cc1cc(C(=O)N[C@@H](c2cc3ccccc3[nH]2)c2cc(F)ccc2O)cc(-c2ccc(N3CCC(N)CC3)cn2)c1 [Example 17, (R)-3-(5-(4-aminopiperidine-1-yl)pyridine-2-yl)-N-((5-fluoro-2-hydroxyphenyl)(1H-indole-2-yl)methyl)-5-methylbenzamide]	< 30 nM	< 30 nM
CC(C)c1cc(C(=O)N[C@@H](c2cc3ccccc3[nH]2)c2cc(F)ccc2O)cc(-c2ccc(N3CCC(N)CC3)cc2)c1 [Example 2, (R)-4′-(4-aminopiperidine-1-yl)-N-((5-fluoro-2-hydroxyphenyl)(1H-indole-2-yl)methyl)-5-isopropyl-[1,1′-biphenyl]-3-carboxamide]	> 200 nM	> 200 nM
Cc1cc(C(=O)N[C@@H](c2cc3ccc(Cl)cc3[nH]2)c2cc(F)ccc2O)cc(-c2ccc(N3CCC(N)CC3)cc2)c1 [Example 27, (R)-4′-(4-aminopiperidine-1-yl)-N-((6-chloro-1H-indole-2-yl)(5-fluoro-2-hydroxyphenyl)methyl)-5-methyl-[1,1′-biphenyl]-3-carboxamide]	30 to 200 nM	> 200 nM
Cc1cc(C(=O)N[C@@H](c2cc3ccccc3[nH]2)c2cc(F)ccc2O)cc(-c2ccc(N3CCC(N)CC3)c(F)c2)c1 [Example 22, (R)-4′-(4-aminopiperidine-1-yl)-3′-fluoro-N-((5-fluoro-2-hydroxyphenyl)(1H-indole-2-yl)methyl)-5-methyl-[1,1′-biphenyl]-3-carboxamide]	< 30 nM	< 30 nM
Cc1cc(C(=O)N[C@@H](c2cc3ccccc3[nH]2)c2cc(F)ccc2O)cc(-c2ncc(N3CCC(n4cncn4)CC3)cn2)c1 [Example 48, (R)-3-(5-(4-(1H-1,2,4-triazole-1-yl)piperidine-1-yl)pyrimidine-2-yl)-N-((5-fluoro-2-hydroxyphenyl)(1H-indole-2-yl)methyl)-5-methylbenzamide]		30 to 200 nM
Cc1cc(C(=O)N[C@@H](c2cc3ccccc3[nH]2)c2cc(F)ccc2O)cc(-c2ncc(N3CCN(C4CCN(C)CC4)CC3)cn2)c1 [Example 41, N—[(R)-(5-fluoro-2-hydroxy-phenyl)-(1H-indole-2-yl)methyl]-3-methyl-5-[5-[4-(1-methyl-4-piperidyl)piperazine-1-yl]pyrimidine-2-yl]benzamide]	< 30 nM	< 30 nM
Cc1cc(C(=O)N[C@@H](c2cc3ccccc3[nH]2)c2cc(F)ccc2O)cc(-c2ccc(N3CCC(N)CC3)nn2)c1 [Example 20, (R)-3-(6-(4-aminopiperidine-1-yl)pyridazine-3-yl)-N-((5-fluoro-2-hydroxyphenyl)(1H-indole-2-yl)methyl)-5-methylbenzamide]	30 to 200 nM	> 200 nM
Cc1cc(C(=O)N[C@@H](c2cc3ccccc3[nH]2)c2cc(F)ccc2O)cc(-c2cnc(N3CCC(N)CC3)cn2)c1 [Example 18, (R)-3-(5-(4-aminopiperidine-1-yl)pyrazine-2-yl)-N-((5-fluoro-2-hydroxyphenyl)(1H-indole-2-yl)methyl)-5-methylbenzamide]	< 30 nM	< 30 nM
Cc1cc(C(=O)N[C@@H](c2cc3ccccc3[nH]2)c2cc(F)ccc2O)cc(-c2ccc(N3CCC(N)CC3)nc2)c1 [Example 19, (R)-3-(6-(4-aminopiperidine-1-yl)pyridine-3-yl)-N-((5-fluoro-2-hydroxyphenyl)(1H-indole-2-yl)methyl)-5-methylbenzamide]	< 30 nM	< 30 nM
Cc1cc(C(=O)N[C@H](c2cc3ccccc3[nH]2)c2cc(F)ccc2O)cc(-c2ccc(N3CCC(N)CC3)cc2)c1 [Example 31, (S)-4′-(4-aminopiperidine-1-yl)-N-((5-fluoro-2-hydroxyphenyl)(1H-indole-2-yl)methyl)-5-methyl-[1, l′-biphenyl]-3-carboxamide]	> 200 nM	> 200 nM
Cc1cc(C(=O)N[C@@H](c2cc3ccccc3[nH]2)c2cc(F)ccc2O)cc(-c2ncc(N3CCN(C(=O)OC(C)(C)C)CC3)cn2)c1 [Example 35, tert-butyl (R)-4-(2-(3-(((5-fluoro-2-hydroxyphenyl)(1H-indole-2-yl)methyl)carbamoyl)-5-methylphenyl)pyrimidine-5-yl)piperazine-1-carboxylate]	> 200 nM	< 30 nM
Cc1cc(C(=O)N[C@@H](c2cc3ccccc3[nH]2)c2cc(F)ccc2O)cc(-c2ncc(N3CCC(CN4CCOCC4)CC3)cn2)c1 [Example 51, (R)—N-((5-fluoro-2-hydroxyphenyl)(1H-indole-2-yl)methyl)-3-methyl-5-(5-(4-(morpholinomethyl)piperidine-1-yl)pyrimidine-2-yl)benzamide]		> 200 nM
Cc1cc(C(=O)N[C@@H](c2cc3ccccc3[nH]2)c2cc(F)ccc2O)cc(-c2ncc(N3CCC(N4CCCCC4)CC3)cn2)c1 [Example 50, (R)-3-(5-([1,4′-bipiperidine]-1′-yl)pyrimidine-2-yl)-N-((5-fluoro-2-hydroxyphenyl)(1H-indole-2-yl)methyl)-5-methylbenzamide]		< 30 nM
CNC1CCN(c2cnc(-c3cc(C)cc(C(=O)N[C@@H](c4cc5ccccc5[nH]4)c4cc(F)ccc4O)c3)nc2)CC1 [Example 54, (R)—N-((5-fluoro-2-hydroxyphenyl)(1H-indole-2-yl)methyl)-3-methyl-5-(5-(4-(methylamino)piperidine-1-yl)pyrimidine-2-yl)benzamide]		< 30 nM
Cc1cc(C(=O)N[C@@H](c2cc3ccccc3[nH]2)c2cc(F)ccc2O)cc(-c2ncc(N3CC[C@@H](N(C)C)C3)cn2)c1 [Example 53, 3-[5-[(3R)-3-(dimethylamino)pyrrolidine-1-yl]pyrimidine-2-yl]-N—[(R)-(5-fluoro-2-hydroxy-phenyl)-(1H-indole-2-yl)methyl]-5-methyl-benzamide]		< 30 nM
Cc1cc(C(=O)N[C@@H](c2cc3ccccc3[nH]2)c2cc(F)ccc2O)cc(-c2ncc(N3CCC(O)CC3)cn2)c1 [Example 49, (R)—N-((5-fluoro-2-hydroxyphenyl)(1H-indole-2-yl)methyl)-3-(5-(4-hydroxypiperidine-1-yl)pyrimidine-2-yl)-5-methylbenzamide]		< 30 nM
COCCOc1ccc(N2CCN(c3cnc(-c4cc(C)cc(C(=O)N[C@@H](c5cc6ccccc6[nH]5)c5cc(F)ccc5O)c4)nc3)CC2)cc1 [Example 56, (R)—N-((5-fluoro-2-hydroxyphenyl)(1H-indole-2-yl)methyl)-3-(5-(4-(4-(2-methoxyethoxy)phenyl)piperazine-1-yl)pyrimidine-2-yl)-5-methylbenzamide]		> 200 nM
Cc1cc(C(=O)N[C@@H](c2cc3ccccc3[nH]2)c2cc(F)ccc2O)cc(-c2ncc(N3CCC(n4cccc4)CC3)cn2)c1 [Example 47, (R)-3-(5-(4-(1H-pyrrole-1-yl)piperidine-1-yl)pyrimidine-2-yl)-N-((5-fluoro-2-hydroxyphenyl)(1H-indole-2-yl)methyl)-5-methylbenzamide]		> 200 nM
Cc1cc(C(=O)N[C@@H](c2cc3ccccc3[nH]2)c2cc(F)ccc2O)cc(-c2ncc(N3CCC(CN4CCCC4)CC3)cn2)c1 [Example 52, (R)—N-((5-fluoro-2-hydroxyphenyl)(1H-indole-2-yl)methyl)-3-methyl-5-(5-(4-(pyrrolidine-1-ylmethyl)piperidine-1-yl)pyrimidine-2-yl)benzamide]		> 200 nM
Cc1cc(C(=O)N[C@@H](c2cc3ccccc3[nH]2)c2cc(F)ccc2O)cc(-c2ncc(N3CCC(C(=O)Nc4ccccc4)CC3)cn2)c1 [Example 55, (R)-1-(2-(3-(((5-fluoro-2-hydroxyphenyl)(1H-indole-2-yl)methyl)carbamoyl)-5-methylphenyl)pyrimidine-5-yl)-N-phenylpiperidine-4-carboxamide]		> 200 nM
Cc1cc(C(=O)N[C@@H](c2cc3ccccc3[nH]2)c2cc(F)ccc2O)cc(-c2ncc(N3C4CCC3CN(C)C4)cn2)c1 [Example 46, N—((R)-(5-fluoro-2-hydroxyphenyl)(1H-indole-2-yl)methyl)-3-methyl-5-(5-(3-methyl-3,8-diazabicyclo[3.2.1]octane-8-yl)pyrimidine-2-yl)benzamide]		< 30 nM
